Measured values: US20130274174A1, “THERAPEUTIC COMBINATION OF DAPTOMYCIN AND PROTEIN SYNTHESIS INHIBITOR ANTIBIOTIC, AND METHODS OF USE” (priority 2011, published 2013)

Legend:
[1] = tested on: Enterococcus faecalis 795 (VSE); experiment: FIC checkerboard broth microdilution; assay type: cell-based; conditions: agent alone
Protocol: (§1) Test articles of stock solutions of daptomycin (Cubist, lot MCB2007) and TR-700 were prepared at 40 times the final target concentration in DMSO:water (1:1). DMSO was added first, the solutions were allowed to stand for 60 minutes and then the water was added. TR-700 formed a precipitate above 1280 μg/ml; therefore, this was the highest concentration used. […] The final DMSO concentration was 2.5%. The final drug concentrations in the FIC assay plates were set to bracket the MIC value of each test article for each test organism, unless the strain was totally resistant to the test article.
(§2) The test organisms were originally received from clinical sources, or from the American Type Culture Collection. Upon receipt in our laboratory, the isolates were streaked onto the appropriate growth medium: Tryptic Soy Agar II (Becton Dickinson, Sparks, Md.) supplemented with 5% defibrinated sheep blood for streptococci, and unsupplemented Tryptic Soy Agar II for all other organisms. Colonies were harvested from these plates and a cell suspension was prepared in Tryptic Soy Broth (Becton Dickinson) containing cryoprotectant. Aliquots were then frozen at −80° C. On the day prior to assay, the frozen seeds of the organisms to be tested in that session were thawed and streaked for isolation onto the appropriate agar medium plates and incubated overnight at 35° C. The test organisms were: • Staphylococcus aureus 2053 (methicillin-resistant) • Enterococcus faecalis 795 (vancomycin-susceptible) • Streptococcus pyogenes 717 • Streptococcus pneumoniae 880 (penicillin-resistant) • Escherichia coli 102 (ATCC 25922)
(§3) Streptococci were tested in Mueller Hinton II Broth (Becton Dickinson; Lot 7024879 and 7143673) supplemented with 2% lysed horse blood (Cleveland Scientific, Bath, Ohio; Lot H10472). All other organisms were tested in Mueller Hinton II Broth. The broth was prepared at 1.05× normal weight/volume to offset the 5% volume of the drugs in the final test plates.
(§4) FIC values were determined using a broth microdilution method previously described. See, Sweeney, M T and Zurenko, G E. 2003. In vitro activities of linezolid combined with other antimicrobial agents against staphylococci, enterococci, pneumococci and selected Gram-negative organisms. Antimicrob. Agents Chemother. 47:1902-1906. Automated liquid handlers (Multidrop 384, Labsystems, Helsinki, Finland; Biomek 2000 and Multimek 96, Beckman Coulter, Fullerton Calif.) were used to conduct serial dilutions and liquid transfers.
(§5) The wells (columns 2-12) of standard 96-well microdilution plates (Falcon 3918) were filled with 150 μL of 50% DMSO using the Multidrop 384. Column 1 wells were filled with 300 μl of the 40× stock solutions. […]

[2] = tested on: Staphylococcus aureus 2053 (MRSA); experiment: FIC checkerboard broth microdilution; assay type: cell-based; conditions: agent alone
Protocol: as §1, §2, §3, §4, §5

[3] = tested on: Streptococcus pneumoniae 880; experiment: FIC checkerboard broth microdilution; assay type: cell-based; conditions: agent alone
Protocol: as §1, §2, §3, §4, §5

[4] = tested on: Streptococcus pyogenes 717; experiment: FIC checkerboard broth microdilution; assay type: cell-based
Protocol: as §1, §2, §3, §4, §5

[5] = Solubility of test articles in stock solutions and at final test concentrations; assay type: physicochemical; conditions: stock solution in DMSO:water (1:1)
Protocol: as §1, with “added.” for “added. TR-700 formed a precipitate above 1280 μg/ml; therefore, this was the highest concentration used.”

**Q.** What does the source list for `Cn1nnc(-c2ccc(-c3ccc(N4C[C@H](CO)OC4=O)cc3F)cn2)n1` [TR-700, Tedizolid]?
**A.** MIC [1]: 0.5 µg/mL; MIC [2]: 0.5 µg/mL; MIC [3]: 0.25 µg/mL; MIC [4]: 0.125 µg/mL; concentration above which a precipitate formed [5]: above 1280 μg/ml
